Experiments:
Assay in all cases: c-Kit assay: Ba/F3 KIT mutant cell viability (Cell Titer-Glo, 72 hours)
Type in all cases: cell-based
Conditions in all cases: viability after 72 hours
BAF3 FL KIT EX11DEL = molecular target: T1, BAF3 FL KIT EX11DEL (Homo sapiens, UniProt P10721, cells depend on it, form not given)
T1 construct: BAF3 FL KIT EX11DEL
Experimental: (§1) Generation of DBa/F3 KIT Mutant Engineered Cell Lines
(§2) KIT cDNAs were synthesized by GenScript and cloned into the pLVX-IRES-Puro vector (Clontech). Viral particles were produced by transfecting pLVX-IRES-puro vectors containing KIT mutant genes into HEK293 cells (Invitrogen) using the Trans-Lentiviral ORF Packaging Kit (Thermo Scientific). 48 hours post-transfection, virus-containing supernatants were harvested and incubated for another 48-72 hours with parental Ba/F3 cells (DSMZ) in the presence of 10 ng/mL IL-3 (R&D Systems). Transduced Ba/F3 cells were then selected by IL-3 withdrawal and puromycin (0.5-1 μg/mL, Invitrogen).
(§3) Cell lines (e.g., EX11DEL, EX11DEL/D816H, EX11DEL/T670I, and EX11DEL/V654A) were plated into 384 well plates using RPMI 1640 supplemented with 10% FBS at densities that produced linear growth and incubated at 37° C. in 5% (v/v) CO2. Cells were treated with eight concentrations of compound over a 4-fold dilution (10 μM to 0.61 nM) and viability was assessed using Cell Titer-Glo assay (Promega) after 72 hours. Data were plotted as percent viability relative to vehicle-treated cells. Dose-responses curves were generated and used to calculate IC50 values.

[1] = molecular target: T2, BAF3 FL KIT EX11DEL/V654A (Homo sapiens, UniProt P10721, V654A, cells depend on it, form not given)
T2 construct: BAF3 FL KIT EX11DEL/V654A
Experimental: as §1, §2, §3

[2] = molecular target: T3, BAF3 FL KIT EX11DEL/T670I (Homo sapiens, UniProt P10721, T670I, cells depend on it, form not given)
T3 construct: BAF3 FL KIT EX11DEL/T670I
Experimental: as §1, §2, §3

[3] = molecular target: T4, BAF3 FL KIT EX11DEL/D816H (Homo sapiens, UniProt P10721, D816H, cells depend on it, form not given)
T4 construct: BAF3 FL KIT EX11DEL/D816H
Experimental: as §1, §2, §3

T3 sequence (P10721 with tags, fused parts or gaps DEL557-558/T670I, form open): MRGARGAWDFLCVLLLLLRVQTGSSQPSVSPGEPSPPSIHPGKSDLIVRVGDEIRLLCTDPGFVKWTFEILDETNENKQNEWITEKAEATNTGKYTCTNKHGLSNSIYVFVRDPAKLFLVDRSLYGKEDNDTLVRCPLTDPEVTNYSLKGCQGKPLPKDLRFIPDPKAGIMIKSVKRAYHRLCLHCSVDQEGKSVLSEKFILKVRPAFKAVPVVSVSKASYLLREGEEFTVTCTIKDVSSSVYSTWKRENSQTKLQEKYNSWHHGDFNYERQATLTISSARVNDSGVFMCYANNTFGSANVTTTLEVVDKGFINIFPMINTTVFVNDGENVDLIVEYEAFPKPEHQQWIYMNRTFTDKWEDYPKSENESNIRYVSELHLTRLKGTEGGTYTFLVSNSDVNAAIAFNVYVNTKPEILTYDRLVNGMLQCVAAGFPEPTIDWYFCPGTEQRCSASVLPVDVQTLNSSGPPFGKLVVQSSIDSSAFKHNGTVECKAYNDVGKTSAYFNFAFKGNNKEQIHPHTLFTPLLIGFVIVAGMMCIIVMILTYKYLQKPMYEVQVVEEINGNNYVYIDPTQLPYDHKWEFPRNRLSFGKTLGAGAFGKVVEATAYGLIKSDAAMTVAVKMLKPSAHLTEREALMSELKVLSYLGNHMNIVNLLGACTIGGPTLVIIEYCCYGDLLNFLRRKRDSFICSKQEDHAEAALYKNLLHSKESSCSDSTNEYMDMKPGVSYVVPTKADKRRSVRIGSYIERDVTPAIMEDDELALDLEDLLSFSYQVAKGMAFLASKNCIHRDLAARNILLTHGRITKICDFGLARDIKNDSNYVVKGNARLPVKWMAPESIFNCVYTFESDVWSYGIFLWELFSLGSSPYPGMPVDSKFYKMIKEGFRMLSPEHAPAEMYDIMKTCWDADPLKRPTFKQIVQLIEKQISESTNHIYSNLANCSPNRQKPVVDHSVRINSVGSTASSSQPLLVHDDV
T1 sequence (P10721 with tags, fused parts or gaps DEL557-558): as the sequence (P10721 with tags, fused parts or gaps DEL557-558/T670I, form open) above, with I668T counted along it
T2 sequence (P10721 with tags, fused parts or gaps DEL557-558/V654A, form open): as the sequence (P10721 with tags, fused parts or gaps DEL557-558/T670I, form open) above, with V652A, I668T counted along it
T4 sequence (P10721 with tags, fused parts or gaps DEL557-558/D816H, form open): as the sequence (P10721 with tags, fused parts or gaps DEL557-558/T670I, form open) above, with I668T, D814H counted along it

SMILES | GI50 (BAF3 FL KIT EX11DEL) [nM] | GI50 [1] [nM] | GI50 [2] [nM] | GI50 [3] [nM]
CC(=O)Nc1ncc(C#Cc2cc(C(=O)Nc3cc(C(F)(F)F)ccn3)ccc2C)s1 [I-51, 3-((2-acetamidothiazol-5-yl)ethynyl)-4-methyl-N-(4-(trifluoromethyl)pyridin-2-yl)benzamide] | < 10 | 10 to 50 | 10 to 50 | 10 to 50
COCCN(C)C(=O)Nc1ncc(C#Cc2cc(C(=O)Nc3cccc(C(F)(F)F)c3OC)ccc2C)s1 [I-47, N-(2-methoxy-3-(trifluoromethyl)phenyl)-3-((2-(3-(2-methoxyethyl)-3-methylureido)thiazol-5-yl)ethynyl)-4-methylbenzamide] | < 10 | 10 to 50 | 100 to 10000 | 10 to 50
Cc1ccc(C(=O)Nc2cc(C(F)(F)F)ccn2)cc1C#Cc1cnc(NC(=O)NCCN2CCC(O)C2)s1 (centres unmarked) [I-18, 3-((2-(3-(2-(3-hydroxypyrrolidin-1-yl)ethyl)ureido)thiazol-5-yl)ethynyl)-4-methyl-N-(4-(trifluoromethyl)pyridin-2-yl)benzamide] | < 10 | 10 to 50 | 10 to 50 | 10 to 50
Cc1ccc(C(=O)Nc2cc(C(F)(F)F)ccn2)cc1C#Cc1cnc(NC(=O)N2CC(C)(O)C2)s1 [I-24, 3-hydroxy-3-methyl-N-(5-((2-methyl-5-((4-(trifluoromethyl)pyridin-2-yl)carbamoyl)phenyl)ethynyl)thiazol-2-yl)azetidine-1-carboxamide] | < 10 | < 10 | < 10 | < 10
COCCN(C)C(=O)Nc1ncc(C#Cc2cc(NC(=O)c3cc(C(F)(F)F)ccn3)ccc2C)s1 [I-54, N-(3-((2-(3-(2-methoxyethyl)-3-methylureido)thiazol-5-yl)ethynyl)-4-methylphenyl)-4-(trifluoromethyl)picolinamide] | < 10 | 10 to 50 | 10 to 50 | 10 to 50
Cc1ccc(C(=O)Nc2cc(C(F)(F)F)ccn2)cc1C#Cc1cnc(NC(=O)N(C)C2CCCN(C)C2)s1 (centres unmarked) [I-32, 4-methyl-3-((2-(3-methyl-3-(1-methylpiperidin-3-yl)ureido)thiazol-5-yl)ethynyl)-N-(4-(trifluoromethyl)pyridin-2-yl)benzamide] | < 10 | 10 to 50 | 10 to 50 | 10 to 50
CCN(CC)CCN(C)C(=O)Nc1ncc(C#Cc2cc(NC(=O)c3cc(C(F)(F)F)ccn3)ccc2C)s1 [I-59, N-(3-((2-(3-(2-(diethylamino)ethyl)-3-methylureido)thiazol-5-yl)ethynyl)-4-methylphenyl)-4-(trifluoromethyl)picolinamide] | 10 to 50 | 100 to 10000 | 100 to 10000 | 50 to 100
COCCN(C)C(=O)Nc1ncc(C#Cc2cc(C(=O)Nc3cc(C(F)(F)F)ccn3)ccc2C)s1 [I-7, 3-((2-(3-(2-methoxyethyl)-3-methylureido)thiazol-5-yl)ethynyl)-4-methyl-N-(4-(trifluoromethyl)pyridin-2-yl)benzamide] | < 10 | 10 to 50 | < 10 | 10 to 50
Cc1ccc(C(=O)Nc2cc(C(F)(F)F)ccn2)cc1C#Cc1cnc(NC(=O)N2CCN(C)CC2)s1 [I-23, 4-methyl-N-(5-((2-methyl-5-((4-(trifluoromethyl)pyridin-2-yl)carbamoyl)phenyl)ethynyl)thiazol-2-yl)piperazine-1-carboxamide] | < 10 | 10 to 50 | < 10 | 10 to 50
CNCCN(C)C(=O)Nc1ncc(C#Cc2cc(C(=O)Nc3cc(C(F)(F)F)ccn3)ccc2C)s1 [I-28, 4-methyl-3-((2-(3-methyl-3-(2-(methylamino)ethyl)ureido)thiazol-5-yl)ethynyl)-N-(4-(trifluoromethyl)pyridin-2-yl)benzamide] | < 10 | 10 to 50 | 10 to 50 | 10 to 50
Cc1ccc(C(=O)Nc2cc(C(F)(F)F)ccn2)cc1C#Cc1cnc(NC(=O)NCC(C)(C)O)s1 [I-15, 3-((2-(3-(2-hydroxy-2-methylpropyl)ureido)thiazol-5-yl)ethynyl)-4-methyl-N-(4-(trifluoromethyl)pyridin-2-yl)benzamide] | < 10 | 10 to 50 | 10 to 50 | 10 to 50
CNC(=O)Nc1ncc(C#Cc2cc(NC(=O)c3cc(C(F)(F)F)ccn3)ccc2C)s1 [I-57, N-(4-methyl-3-((2-(3-methylureido)thiazol-5-yl)ethynyl)phenyl)-4-(trifluoromethyl)picolinamide] | < 10 | < 10 | 10 to 50 | < 10
CNC(=O)Nc1ncc(C#Cc2cc(C(=O)Nc3cc(C(F)(F)F)ccn3)ccc2F)s1 [I-45, 4-fluoro-3-((2-(3-methylureido)thiazol-5-yl)ethynyl)-N-(4-(trifluoromethyl)pyridin-2-yl)benzamide] | < 10 | 10 to 50 | < 10 | 10 to 50
Cc1ccc(C(=O)Nc2cc(C(F)(F)F)ccn2)cc1C#Cc1cnc(NC(=O)N(C)CCN2CCN(C)CC2)s1 [I-16, 4-methyl-3-((2-(3-methyl-3-(2-(4-methylpiperazin-1-yl)ethyl)ureido)thiazol-5-yl)ethynyl)-N-(4-(trifluoromethyl)pyridin-2-yl)benzamide] | < 10 | 10 to 50 | < 10 | 10 to 50
Cc1ccc(C(=O)Nc2cc(C(F)(F)F)ccn2)cc1C#Cc1cnc(NC(=O)NCCN2CCCC2)s1 [I-12, 4-methyl-3-((2-(3-(2-(pyrrolidin-1-yl)ethyl)ureido)thiazol-5-yl)ethynyl)-N-(4-(trifluoromethyl)pyridin-2-yl)benzamide] | < 10 | 50 to 100 | 50 to 100 | 10 to 50
Cc1ccc(C(=O)Nc2cc(C(F)(F)F)ccn2)cc1C#Cc1cnc(NC(=O)N(C)CCN2CCCC2)s1 [I-19, 4-methyl-3-((2-(3-methyl-3-(2-(pyrrolidin-1-yl)ethyl)ureido)thiazol-5-yl)ethynyl)-N-(4-(trifluoromethyl)pyridin-2-yl)benzamide] | < 10 | 10 to 50 | 10 to 50 | 10 to 50
NC(=O)Nc1ncc(C#Cc2ccc(F)c(C(=O)Nc3cc(C(F)(F)F)ccn3)c2)s1 [I-43, 2-fluoro-N-(4-(trifluoromethyl)pyridin-2-yl)-5-((2-ureidothiazol-5-yl)ethynyl)benzamide] | < 10 | 100 to 10000 | 100 to 10000 | 100 to 10000
COCCNC(=O)Nc1ncc(C#Cc2cc(C(=O)Nc3cc(C(F)(F)F)ccn3)ccc2C)s1 [I-5, 3-((2-(3-(2-methoxyethyl)ureido)thiazol-5-yl)ethynyl)-4-methyl-N-(4-(trifluoromethyl)pyridin-2-yl)benzamide] | < 10 | 10 to 50 | 10 to 50 | 10 to 50
CNC(=O)Nc1ncc(C#Cc2ccc(F)c(C(=O)Nc3cc(C(F)(F)F)ccn3)c2)s1 [I-42, 2-fluoro-5-((2-(3-methylureido)thiazol-5-yl)ethynyl)-N-(4-(trifluoromethyl)pyridin-2-yl)benzamide] | < 10 | 100 to 10000 | 100 to 10000 | 100 to 10000
Cc1ccc(C(=O)Nc2ccc(CN3CCN(C)CC3)c(C(F)(F)F)c2)cc1C#Cc1cnc(NC(=O)C2CC2)s1 [I-50, 3-((2-(cyclopropanecarboxamido)thiazol-5-yl)ethynyl)-4-methyl-N-(4-((4-methylpiperazin-1-yl)methyl)-3-(trifluoromethyl)phenyl)benzamide] | 10 to 50 | 100 to 10000 | 10 to 50 | 10 to 50
CC(=O)N1CCN(C(=O)Nc2ncc(C#Cc3cc(C(=O)Nc4cc(C(F)(F)F)ccn4)ccc3C)s2)CC1 [I-37, 4-acetyl-N-(5-((2-methyl-5-((4-(trifluoromethyl)pyridin-2-yl)carbamoyl)phenyl)ethynyl)thiazol-2-yl)piperazine-1-carboxamide] | < 10 | < 10 | < 10 | < 10
COCCN(C)C(=O)Nc1ncc(C#Cc2cc(C(=O)Nc3ccc(C#N)c(C(F)(F)F)c3)ccc2C)s1 [I-48, N-(4-cyano-3-(trifluoromethyl)phenyl)-3-((2-(3-(2-methoxyethyl)-3-methylureido)thiazol-5-yl)ethynyl)-4-methylbenzamide] | < 10 | 50 to 100 | 10 to 50 | 10 to 50
Cc1ccc(C(=O)Nc2cc(C(F)(F)F)ccn2)cc1C#Cc1cnc(NC(=O)N(C)CCN(C)C)s1 [I-9, 3-((2-(3-(2-(dimethylamino)ethyl)-3-methylureido)thiazol-5-yl)ethynyl)-4-methyl-N-(4-(trifluoromethyl)pyridin-2-yl)benzamide] | < 10 | 10 to 50 | < 10 | 10 to 50

Source: patent US11753404B2, “Aminothiazole compounds as c-Kit inhibitors” (Ariad Pharmaceuticals, Inc., priority 2016, dated 2023)
